From ChEMBL document CHEMBL5137133, “Effects of the Anthocyanin Hirsutidin on Gastric Ulcers: Improved Healing through Antioxidant Mechanisms” (J Nat Prod, 2022)
Active and inactive are the calls of the source. The rule behind the calls is not given here.

Assays:
[1] = tested on: Rattus norvegicus; experiment: Anti-ulcer activity in Wistar rat model of ethanol-induced gastric ulcer assessed as reduction in MPO levels at 10 to 20 mg/kg, po administered once daily for 7 days followed by ethanol injection after 1 hr post last dose and measured after 4 hrs; type: functional, organism-based; settings: dose 10-20 mg/kg, time 173.0 hrs
[2] = Acute toxicity in po dosed mouse assessed as mortality; type: organism-based; settings: in vivo
[3] = tested on: Rattus norvegicus; experiment: Anti-ulcer activity in Wistar rat model of ethanol-induced gastric ulcer assessed as reduction in ulcer score index at 10 to 20 mg/kg, po administered once daily for 7 days followed by ethanol injection after 1 hr post last dose and measured after 4 hrs; type: functional, organism-based; settings: dose 10-20 mg/kg, time 173.0 hrs
[4] = tested on: Rattus norvegicus; experiment: Anti-ulcer activity in Wistar rat model of ethanol-induced gastric ulcer assessed as attenuation of AST level at 10 to 20 mg/kg, po administered once daily for 7 days followed by ethanol injection after 1 hr post last dose and measured after 4 hrs by ELISA; type: functional; settings: dose 10-20 mg/kg, time 173 hrs
[5] = tested on: Rattus norvegicus; experiment: Anti-ulcer activity in Wistar rat model of ethanol-induced gastric ulcer assessed as restoration of endogenous GSH levels at 10 to 20 mg/kg, po administered once daily for 7 days followed by ethanol injection after 1 hr post last dose and measured after 4 hrs by Ellman's method; type: functional, organism-based; settings: dose 10-20 mg/kg, time 173.0 hrs
[6] = tested on: Rattus norvegicus; experiment: Anti-ulcer activity in Wistar rat model of ethanol-induced gastric ulcer assessed as attenuation of ALT level at 10 to 20 mg/kg, po administered once daily for 7 days followed by ethanol injection after 1 hr post last dose and measured after 4 hrs by ELISA; type: functional; settings: dose 10-20 mg/kg, time 173 hrs
[7] = tested on: Rattus norvegicus; experiment: Anti-ulcer activity in Wistar rat model of ethanol-induced gastric ulcer assessed as reduction in serum IL-6 level at 10 to 20 mg/kg, po administered once daily for 7 days followed by ethanol injection after 1 hr post last dose and measured after 4 hrs by ELISA; type: functional, organism-based; settings: dose 10-20 mg/kg, time 173.0 hrs
[8] = tested on: Rattus norvegicus; experiment: Anti-ulcer activity in Wistar rat model of ethanol-induced gastric ulcer assessed as increase in gastric pH at 20 mg/kg, po administered once daily for 7 days followed by ethanol injection after 1 hr post last dose; type: functional; settings: time 173 hrs
[9] = tested on: Rattus norvegicus; experiment: Anti-ulcer activity in Wistar rat model of ethanol-induced gastric ulcer assessed as increase in gastric pH at 10 mg/kg, po administered once daily for 7 days followed by ethanol injection after 1 hr post last dose and measured after 4 hrs; type: functional; settings: time 173 hrs
[10] = tested on: Rattus norvegicus; experiment: Anti-ulcer activity in Wistar rat model of ethanol-induced gastric ulcer assessed as attenuation of TNFalpha level at 10 to 20 mg/kg, po administered once daily for 7 days followed by ethanol injection after 1 hr post last dose and measured after 4 hrs by ELISA; type: functional; settings: dose 10-20 mg/kg, time 173 hrs
[11] = tested on: Rattus norvegicus; experiment: Anti-ulcer activity in Wistar rat model of ethanol-induced gastric ulcer assessed as reduction in total acidity levels at 10 to 20 mg/kg, po administered once daily for 7 days followed by ethanol injection after 1 hr post last dose and measured after 4 hrs; type: functional; design: scale not given: the % may be the effect or the level left; settings: dose 10-20 mg/kg, time 173 hrs
[12] = Acute toxicity in po dosed mouse assessed as morbidity; type: organism-based; settings: in vivo
[13] = tested on: Rattus norvegicus; experiment: Anti-ulcer activity in Wistar rat model of ethanol-induced gastric ulcer assessed as restoration of endogenous SOD levels at 10 to 20 mg/kg, po administered once daily for 7 days followed by ethanol injection after 1 hr post last dose and measured after 4 hrs; type: functional, organism-based; settings: dose 10-20 mg/kg, time 173.0 hrs
[14] = tested on: Rattus norvegicus; experiment: Anti-ulcer activity in Wistar rat model of ethanol-induced gastric ulcer assessed as protection against gastric tissue damages at 10 to 20 mg/kg, po administered once daily for 7 days followed by ethanol injection after 1 hr post last dose and measured after 4 hrs by ELISA; type: functional, organism-based; settings: dose 10-20 mg/kg, time 173.0 hrs
[15] = tested on: Rattus norvegicus; experiment: Anti-ulcer activity in Wistar rat model of ethanol-induced gastric ulcer assessed as restoration of endogenous CAT levels at 10 to 20 mg/kg, po administered once daily for 7 days followed by ethanol injection after 1 hr post last dose and measured after 4 hrs by H2O2 decomposition assay; type: functional, organism-based; settings: dose 10-20 mg/kg, time 173.0 hrs
[16] = tested on: Rattus norvegicus; experiment: Anti-ulcer activity in Wistar rat model of ethanol-induced gastric ulcer assessed as reduction in MDA levels at 10 to 20 mg/kg, po administered once daily for 7 days followed by ethanol injection after 1 hr post last dose and measured after 4 hrs by Wills method; type: functional; design: scale not given: the % may be the effect or the level left; settings: dose 10-20 mg/kg, time 173 hrs
[17] = tested on: Rattus norvegicus; experiment: Anti-ulcer activity in Wistar rat model of ethanol-induced gastric ulcer assessed as protection of NO depletion at 10 to 20 mg/kg, po administered once daily for 7 days followed by ethanol injection after 1 hr post last dose and measured after 4 hrs by ELISA; type: functional; settings: dose 10-20 mg/kg, time 173 hrs
[18] = tested on: Rattus norvegicus; experiment: Anti-ulcer activity in Wistar rat model of ethanol-induced gastric ulcer assessed as attenuation of ALP level at 10 to 20 mg/kg, po administered once daily for 7 days followed by ethanol injection after 1 hr post last dose and measured after 4 hrs by ELISA; type: functional; settings: dose 10-20 mg/kg, time 173 hrs
[19] = tested on: Rattus norvegicus; experiment: Anti-ulcer activity in Wistar rat model of ethanol-induced gastric ulcer assessed as reduction in serum IL-1beta level at 10 to 20 mg/kg, po administered once daily for 7 days followed by ethanol injection after 1 hr post last dose and measured after 4 hrs by ELISA; type: functional, organism-based; settings: dose 10-20 mg/kg, time 173.0 hrs
[20] = tested on: Rattus norvegicus; experiment: Anti-ulcer activity in Wistar rat model of ethanol-induced gastric ulcer assessed as increase in PGE2 levels at 10 to 20 mg/kg, po administered once daily for 7 days followed by ethanol injection after 1 hr post last dose and measured after 4 hrs by ELISA; type: functional, organism-based; settings: dose 10-20 mg/kg, time 173.0 hrs

## COc1cc(O)c2cc(O)c(-c3cc(OC)c(O)c(OC)c3)[o+]c2c1
[1]
  Activity: Active
[2]
  Activity: Non-Toxic
[3]
  Activity: Active
[4]
  Activity: 35.3%
[5]
  Activity: Active
[6]
  Activity: 38.85%
[7]
  Activity: Active
[8]
  pH: 6.36
[9]
  pH: 7.17
[10]
  Activity: 27.59%
[11]
  Activity: 37.76%
[12]
  Activity: Non-Toxic
[13]
  Activity: Active
[14]
  Activity: Active
[15]
  Activity: Active
[16]
  Activity: 49.25%
[17]
  Activity: 85.1%
[18]
  Activity: 47.68%
[19]
  Activity: Active
[20]
  Activity: Active
